test: Cytotoxicity against human NCI60 cells; type: functional; details: read-out: LC50 (the source's name)

| SMILES | CC50 [µM] |
| --- | --- |
| CC[C@H](C)[C@@H]1NC(=O)c2csc(n2)[C@@H](C)NC(=O)[C@H]2N=C(O[C@@H]2C)[C@H](CC(C)C)NC(=O)c2csc(n2)[C@@H](Cc2ccccc2)NC(=O)[C@H]2N=C1O[C@@H]2C [PATELLAMIDE B] | 13 |
| CC(C)[C@@H]1NC(=O)c2csc(n2)[C@@H](C(C)C)NC(=O)[C@H]2N=C(O[C@@H]2C)[C@H](C(C)C)NC(=O)c2csc(n2)[C@@H](Cc2ccccc2)NC(=O)[C@@H]2COC1=N2 [PATELLAMIDE F] | 48 |
| CC(C)C[C@H]1NC(=O)[C@H]2N=C(O[C@@H]2C)[C@H]2CSSC[C@@H](NC(=O)c3csc1n3)C1=N[C@H](C(=O)N[C@H](CC(C)C)c3nc(cs3)C(=O)N2)[C@@H](C)O1 [ULITHIACYCLAMIDE] | 3 |

From ChEMBL document CHEMBL1159239, “Patellamide F, A new cytotoxic cyclic peptide from the colonial ascidian Lissoclinum patella” (1995)
